The target of the assay is T1, hGLP-1R (Homo sapiens, UniProt P43220).
T1 construct: expressed in transfected cells; host or cells: CHO-K1
T1 sequence (P43220 24-463): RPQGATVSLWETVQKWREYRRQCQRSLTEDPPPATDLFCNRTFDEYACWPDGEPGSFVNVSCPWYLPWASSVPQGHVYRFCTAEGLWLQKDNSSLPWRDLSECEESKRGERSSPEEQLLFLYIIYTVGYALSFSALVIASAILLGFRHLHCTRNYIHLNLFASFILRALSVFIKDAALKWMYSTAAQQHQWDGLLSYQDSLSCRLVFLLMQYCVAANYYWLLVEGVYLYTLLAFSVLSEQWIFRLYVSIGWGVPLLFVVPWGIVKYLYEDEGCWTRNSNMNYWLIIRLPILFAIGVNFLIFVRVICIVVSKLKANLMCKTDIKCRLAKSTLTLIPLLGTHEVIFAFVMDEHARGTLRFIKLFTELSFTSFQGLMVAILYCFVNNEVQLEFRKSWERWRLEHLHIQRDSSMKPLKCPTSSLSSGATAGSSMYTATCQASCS
The assay can be described thus: Measurement of activity of GLP-1R agonist (cell-based luciferase assay), CHO-K1/hGLP-1R/CRE-luciferase cell line. Particulars: GLP-1R activity; CHO-K1/hGLP-1R/CRE-luciferase cells, 9 concentrations, four hours of incubation, Bright-Glo luminescence. As to the method: 15,000 cells of a CHO-K1/hGLP-1R/CRE-luciferase cell line were seeded in a 96-well plate. A medium used herein was Ham’s F-12 Nutrient medium. The cells were incubated for 18 hours in a 5% CO2 incubator which was maintained at 37° C., and then treated with drugs. Each drug dispensed at 9 different concentrations was dissolved in a DMEM/F-12 + 1% FBS medium, and the cell line was treated with each of 100 µl thereof. After four hours of incubation, a Bright-Glo® luciferase assay system kit was used to add 30 µl of an assay reagent per well. A plate was stored at room temperature for 15 minutes, and then luminescence was measured using a SpectraMax M5 reader.
Regarding `O=C(O)c1ccc2nc(Cc3ccc(-c4cccc(OCc5ccc(Cl)cc5F)n4)cc3)n(C[C@@H]3CCO3)c2c1` [Example 2, (S)-2-(4-(6-((4-chloro-2-fluorobenzyl)oxy)pyridin-2-yl)benzyl)-1-(oxetan-2-ylmethyl)-1H-benzo[d]imidazole-6-carboxylic acid], the EC50 – broadly, the concentration needed to bring the measured effect to its halfway point – stood at 0.007 nM.

On to `O=C(O)c1ccc2nc(Oc3ccc(-c4cccc(OCc5ccc(Cl)cc5F)n4)cc3F)n(C[C@@H]3CCCO3)c2c1` [Example 31, (S)-2-(4-(6-((4-chloro-2-fluorobenzyl)oxy)pyridin-2-yl)-2-fluorophenoxy)-1-((tetrahydrofuran-2-yl)methyl)-1H-benzo[d]imidazole-6-carboxylic acid], for which the half-maximal effective concentration (EC50) is greater than 80 nM.

In turn, `O=C(O)c1ccc2nc(Cc3ccc(-c4cccc(OCc5ccc(Cl)cc5F)n4)c(F)c3)n(C[C@@H]3CCO3)c2c1` [Example 15, (S)-2-(4-(6-((4-chloro-2-fluorobenzyl)oxy)pyridin-2-yl)-3-fluorobenzyl)-1-(oxetan-2-ylmethyl)-1H-benzo[d]imidazole-6-carboxylic acid] showed an EC50 of 0.0035 nM.

In the case of `O=C(O)c1ccc2nc(Cc3ccc(-c4cccc(OCc5ccc(C(F)(F)F)cc5F)n4)cc3)n(C[C@@H]3CCO3)c2c1` [Example 16, (S)-2-(4-(6-((2-fluoro-4-(trifluoromethyl)benzyl)oxy)pyridin-2-yl)benzyl)-1-(oxetan-2-ylmethyl)-1H-benzo[d]imidazole-6-carboxylic acid], the EC50 was greater than 80 nM.

In the case of `CCCn1cnnc1Cn1c(Cc2ccc(-c3cccc(OCc4ccc(Cl)cc4F)n3)c(F)c2)nc2ccc(C(=O)O)cc21` [Example 27, 2-(4-(6-((4-chloro-2-fluorobenzyl)oxy)pyridin-2-yl)-3-fluorobenzyl)-1-((4-propyl-4H-1,2,4-triazol-3-yl)methyl)-1H-benzo[d]imidazole-6-carboxylic acid], the EC50 amounted to 0.13 nM.

`O=C(O)c1ccc2nc(Cc3ccc(-c4cccc(OCc5ccc(Cl)cc5F)n4)cc3)n(C[C@@H]3CCCO3)c2c1` [Example 12, (S)-2-(4-(6-((4-chloro-2-fluorobenzyl)oxy)pyridin-2-yl)benzyl)-1-((tetrahydrofuran-2-yl)methyl)-1H-benzo[d]imidazole-6-carboxylic acid] came in with an EC50 of 0.0706 nM.

`O=C(O)c1ccc2nc(Oc3ccc(-c4cccc(OCc5ccc(Cl)cc5F)n4)c(F)c3)n(C[C@@H]3CCO3)c2c1` [Example 20, (S)-2-(4-(6-((4-chloro-2-fluorobenzyl)oxy)pyridin-2-yl)-3-fluorophenoxy)-1-(oxetan-2-ylmethyl)-1H-benzo[d]imidazole-6-carboxylic acid] came in with an EC50 of 0.121 nM.

Consider `O=C(O)c1ccc2nc(Oc3ccc(-c4cccc(OCc5ccc(Cl)cc5F)n4)cc3F)n(C[C@@H]3CCO3)c2c1` [Example 17, (S)-2-(4-(6-((4-chloro-2-fluorobenzyl)oxy)pyridin-2-yl)-2-fluorophenoxy)-1-(oxetan-2-ylmethyl)-1H-benzo[d]imidazole-6-carboxylic acid], for which the EC50 came to 0.357 nM.

Take `O=C(O)c1ccc2nc(Cc3ccc(-c4cccc(OCc5ccc(C(F)(F)F)cc5F)n4)cc3)n(Cc3cnco3)c2c1` [Example 21, 2-(4-(6-((2-fluoro-4-(trifluoromethyl)benzyl)oxy)pyridin-2-yl)benzyl)-1-(oxazol-5-ylmethyl)-1H-benzo[d]imidazole-6-carboxylic acid]: the midpoint of the response, the EC50, lay at 0.317 nM.

Regarding `O=C(O)c1ccc2nc(Cc3ccc(-c4cccc(OCc5ccc(Cl)cc5F)n4)cc3F)n(C[C@@H]3CCCO3)c2c1` [Example 30, (S)-2-(4-(6-((4-chloro-2-fluorobenzyl)oxy)pyridin-2-yl)-2-fluorobenzyl)-1-((tetrahydrofuran-2-yl)methyl)-1H-benzo[d]imidazole-6-carboxylic acid], the EC50 came out at 0.0327 nM.

`O=C(O)c1ccc2nc(Cc3ccc(-c4cccc(OCc5ccc(Cl)cc5F)n4)c(Cl)c3)n(C[C@@H]3CCCO3)c2c1` [Example 34, (S)-2-(3-chloro-4-(6-((4-chloro-2-fluorobenzyl)oxy)pyridin-2-yl)benzyl)-1-((tetrahydrofuran-2-yl)methyl)-1H-benzo[d]imidazole-6-carboxylic acid] returned an EC50 of 0.087 nM.

`O=C(O)c1ccc2nc(Oc3ccc(-c4cccc(OCc5ccc(Cl)cc5F)n4)cc3Cl)n(C[C@@H]3CCO3)c2c1` [Example 18, (S)-2-(2-chloro-4-(6-((4-chloro-2-fluorobenzyl)oxy)pyridin-2-yl)phenoxy)-1-(oxetan-2-ylmethyl)-1H-benzo[d]imidazol-6-carboxylic acid]: a half-maximal response (EC50) required 0.438 nM.

Compound `N#Cc1ccc(COc2cccc(-c3ccc(Oc4nc5ccc(C(=O)O)cc5n4Cc4cnco4)cc3)n2)c(F)c1` [Example 9, 2-(4-(6-((4-cyano-2-fluorobenzyl)oxy)pyridin-2-yl)phenoxy)-1-(oxazol-5-ylmethyl)-1H-benzo[d]imidazole-6-carboxylic acid] gave a concentration for a half-maximal effect (EC50) of 0.7 nM.

The compound `O=C(O)c1ccc2nc(Oc3ccc(-c4cccc(OCc5ccc(Cl)cc5F)n4)cc3Cl)n(C[C@@H]3CCCO3)c2c1` [Example 32, (S)-2-(2-chloro-4-(6-((4-chloro-2-fluorobenzyl)oxy)pyridin-2-yl)phenoxy)-1-((tetrahydrofuran-2-yl)methyl)-1H-benzo[d]imidazole-6-carboxylic acid] yielded an EC50 of 3.43 nM.

Compound `O=C(O)c1ccc2nc(Oc3ccc(-c4cccc(OCc5ccc(Cl)cc5F)n4)cc3)n(C[C@@H]3CCO3)c2c1` [Example 7, (S)-2-(4-(6-((4-chloro-2-fluorobenzyl)oxy)pyridin-2-yl)phenoxy)-1-(oxetan-2-ylmethyl)-1H-benzo[d]imidazole-6-carboxylic acid] displayed an EC50 of 0.066 nM.

For `CCCn1cnnc1Cn1c(Cc2ccc(-c3cccc(OCc4ccc(Cl)cc4F)n3)c(Cl)c2)nc2ccc(C(=O)O)cc21` [Example 26, 2-(3-chloro-4-(6-((4-chloro-2-fluorobenzyl)oxy)pyridin-2-yl)benzyl)-1-((4-propyl-4H-1,2,4-triazol-3-yl)methyl)-1H-benzo[d]imidazole-6-carboxylic acid], the EC50 was determined as 0.775 nM.

Turning to `O=C(O)c1ccc2nc(Cc3ccc(-c4cccc(OCc5ccc(Cl)cc5F)n4)cc3)n(CC3CCCCO3)c2c1` (stereo not shown) [Example 14, 2-(4-(6-((4-chloro-2-fluorobenzyl)oxy)pyridin-2-yl)benzyl)-1-((tetrahydro-2H-pyran-2-yl)methyl)-1H-benzo[d]imidazole-6-carboxylic acid], the EC50 was greater than 80 nM.

For `O=C(O)c1ccc2nc(Cc3ccc(-c4cccc(OCc5ccc(Cl)cc5F)n4)c(Cl)c3)n(Cc3cnco3)c2c1` [Example 22, 2-(3-chloro-4-(6-((4-chloro-2-fluorobenzyl)oxy)pyridin-2-yl)benzyl)-1-(oxazol-5-ylmethyl)-1H-benzo[d]imidazole-6-carboxylic acid], the EC50 came to 0.635 nM.

The compound `O=C(O)c1ccc2nc(Cc3ccc(-c4cccc(OCc5ccc(Cl)cc5F)n4)cc3)n(C[C@H]3CCOC3)c2c1` [Example 33, (R)-2-(4-(6-((4-chloro-2-fluorobenzyl)oxy)pyridin-2-yl)benzyl)-1-((tetrahydrofuran-3-yl)methyl)-1H-benzo[d]imidazole-6-carboxylic acid] had a concentration for a half-maximal effect (EC50) of 0.365 nM.
